# Like-named read-outs stand apart in the source and are kept apart here.
# How the values were obtained:
# [1] = Intrasite vancomycin pharmacodynamics trial: adverse reactions; type: in vivo, human; settings: IS dose 2 mg/cm^2, spinal surgery patients
# Description: (§1) Intrasite Vancomycin Pharmacodynamics Trial.
# Adverse Reactions to IS Vancomycin. […] There was one example of a post-operative gram-negative bacterial surgical site infection which could not have been prevented by vancomycin because its spectrum of antimicrobial effects dies not cover this organism.
# [2] = Intrasite vancomycin pharmacodynamics trial: wound seroma vancomycin levels via wound drain
# Protocol: Intrasite Vancomycin Pharmacodynamics Trial. A single dose cohort pharmacodynamics trial was performed under FDA IND# 117494, the first FDA IND awarded for intrasite vancomycin. This dose cohort involved administration of a low dose of intrasite lyophilized vancomycin into complex instrumented spinal surgery wounds in adult patients. At multiple specific time points after surgery measurements were taken of vancomycin and […] levels in the blood stream and from the wound seroma fluid (via the wound drain). Measurements of endotoxin levels within the blood stream and seroma fluid were also taken at the same time points following surgery. All personnel present during administration of IS vancomycin were required to wear a certified fit N-90 mask to prevent inhalation of aerosolized vancomycin powder, which is a known safety risk for pulmonary fibrosis.
# Intrasite Dosing of Vancomycin. Intrasite dosing was based on the surface area of the wound (tissues within the spinal wound lying deep to the skin). Wound surface area was estimated by a wound Length×Depth×2 calculation where length and mean depth were measured directed by the surgeon after surgical opening of the wound was completed. To assure safety, the maximum IS dose of vancomycin given to patients in this cohort was limited to well below the normal maximum safe IV dose of 2.5 g. Given that maximum wound surface areas created in spinal deformity patients are on the order of 1000 cm^2, a surface area dose of 2 mg/cm^2 provides for a maximum single dose of ˜2 g IS vancomycin, considered safe even if the entire dose absorbed into the circulation. To improve the homogeneity of IS dose application one third of the total calculated dose was delivered to the subepidermal tissues of the wound, superficial to the perimuscular fascia, one third of the total dose was applied to the subfascial muscle, bone, and other tissues, and one third of the total dose was milled with the bone graft before implantation.
# Wound Vancomycin Levels Following a Single Intrasite Dose. Wound seroma vancomycin levels were measured via the wound drain at multiple time points for 4 days after a single intrasite dose given at the conclusion of surgery. […] However, vancomycin is a time-dependent killer of microbes and levels must exceed kill concentrations for up to 48 hrs to be completely effective.
# [3] = tested on: Vancomycin-Resistant Staphylococcus aureus (VRSA); settings: certain strains of VRSA; cited from earlier work
# [4] = Intrasite vancomycin pharmacodynamics trial: systemic circulation serum vancomycin concentration; type: in vivo, human; settings: all measured time-points, single IS dose (2 mg/cm^2; moderate doses); detectability limit printed >1.7 μg/ml
# Protocol: as §1
# Intrasite Dosing of Vancomycin.
# Systemic Circulation Serum Vancomycin Concentrations after IS Dose. In all of the 10 patients of the 2 mg/cm^2 dose cohort serum vancomycin levels remained undetectable at all measured time-points after a single IS dose. Detectability limit in these experiments was >1.7 μg/ml. This is interpreted as a strong indicator of safety with regard to systemic side effects and toxicities as well as evidence of a very wide therapeutic index when vancomycin is administered IS. This strongly contrasts to the higher probability of systemic toxicity and narrow therapeutic index when vancomycin is administered IV.
# [5] = cited from earlier work
# [6] = in vivo; cited from earlier work
# [7] = measured at 2 hrs after single IS dose 2 mg/cm^2, 10 patients
# [8] = single IS dose 2 mg/cm^2, 10 patients
# [9] = within the first 48 hrs after single IS dose 2 mg/cm^2, 10 patients
structure (smiles),measurement,setting,value
CN[C@H](CC(C)C)C(=O)N[C@H]1C(=O)N[C@@H](CC(N)=O)C(=O)N[C@H]2C(=O)N[C@H]3C(=O)N[C@H](C(=O)N[C@H](C(=O)O)c4cc(O)cc(O)c4-c4cc3ccc4O)[C@H](O)c3ccc(c(Cl)c3)Oc3cc2cc(c3O[C@@H]2O[C@H](CO)[C@@H](O)[C@H](O)[C@H]2O[C@H]2C[C@](C)(N)[C@H](O)[C@H](C)O2)Oc2ccc(cc2Cl)[C@H]1O [vancomycin],adverse reactions related to IS vancomycin,[1],no patient- or practitioner-identified adverse reactions
same,"highest vancomycin concentration, subfascial wound compartment",[2]; [7],952 µg/mL
same,"highest vancomycin concentration, suprafascial wound compartment",[2]; [7],6110 µg/mL
same,time vancomycin remains in high enough wound concentration for efficient suppression of gram-positive microorganisms,"[2]; moderate IS doses, also with seroma fluid removed via drains, preliminary evidence",at least 4 days
same,time mean subfascial vancomycin concentration exceeds threshold to kill VRSA (128 μg/ml),[2]; [8],less than 24 hrs
same,time mean suprafascial vancomycin concentration exceeds threshold to kill VRSA (128 μg/ml),[2]; [8],more than 48 hrs
same,"lowest vancomycin concentration, subfascial wound compartment",[2]; [9],4.1 µg/mL
same,"lowest vancomycin concentration, suprafascial wound compartment",[2]; [9],16.2 µg/mL
same,minimum 90% bactericidal concentration (MBC^90),[3],64 µg/mL
same,serum vancomycin level after IS dose,[4],undetectable
"NC[C@H]1CC[C@H](C(=O)O)CC1 [TXA, trans-4-[aminomethyl]cyclohexanecarboxylic acid]",oral bioavailability,[5]; oral,34%
same,half-life in the blood stream,[6],approximately 2 hrs
CO[C@H]1/C=C/O[C@@]2(C)Oc3c(C)c(O)c4c(O)c(c5c(nc6cc(C)ccn65)c4c3C2=O)NC(=O)/C(C)=C\C=C\[C@H](C)[C@H](O)[C@@H](C)[C@@H](O)[C@@H](C)[C@H](OC(C)=O)[C@@H]1C [Rifaximin],oral bioavailability,"[5]; in vivo, po",< 0.4%
